Data on one molecule can be found in patent US20170107207A1, “AMINOPYRAZOLONE DERIVATIVE” (DAIICHI SANKYO COMPANY, LIMITED, priority 2014, published 2017).

The structures appear in SMILES notation.

For assay [1], the system named is Skin cancer cell line A375 cells. The experiment in a line: Antitumor test, mouse subcutaneous transplantation model, A375. The class given is in vivo. The conditions noted are these: A375 in nude mice, 4 consecutive days, tumor measured next day. An excerpt: (§1) In vivo test of test compound: Antitumor test using mouse subcutaneous transplantation model
Skin cancer cell line A375 cells were dissociated from a culture flask by trypsin treatment, then suspended in a DMEM medium (Life Technologies Corp.) containing 10% FBS, and then centrifuged to remove the supernatant. The cells were washed with this medium twice and then suspended in PBS. The cell suspension was subcutaneously transplanted at a dose of 3×10^6 cells/mouse to the right axillary regions of 6-week-old nude mice (BALB/cAJc1-nu/nu, CLEA Japan, Inc.). The test was conducted by using cancer-bearing mice having an estimated tumor volume (major axis×minor axis×minor axis/2) of 75 to 150 mm3 and grouping the cancer-bearing mice without significant difference in average estimated tumor volume from a negative control group. The compound of Example 113 was suspended in solvent (EtOH/DMA/Solutol HS-15/PEG400/5% HMPC). The suspension was orally administered to each mouse twice a day (BID) at a dose of 50, 100, or 200 mg/kg for 4 consecutive days. On the next day, the tumor sizes were measured.
(§2) The rate of tumor growth inhibition was also calculated in this test according to the following expression and is shown in a table.
(§3) Rate of tumor growth inhibition (%)=100−(Average value of the tumor volumes of the test compound administration group)/(Average value of the tumor volumes of the vehicle administration group)×100.

Assay [2] relates to Lymphoma cell line RAMOS cells. In words: Antitumor test, mouse subcutaneous transplantation model, RAMOS. The conditions noted are these: RAMOS in SCID mice, 4 consecutive days, tumor measured next day. The class given is in vivo.
Description: as §1
Lymphoma cell line RAMOS cells were suspended in a culture flask and then centrifuged to remove a supernatant. The cells were washed with PBS (phosphate buffered saline, Life Technologies Corp.) twice and then suspended in PBS. The cell suspension was subcutaneously transplanted at a dose of 1×10^7 cells/mouse to the right axillary regions of 6-week-old SCID mice (FOX CHASE SCID C.B.17/Icr-scid/scidJcl, CLEA Japan, Inc.). The test was conducted by using cancer-bearing mice having an estimated tumor volume (major axis×minor axis×minor axis/2) of 200 to 350 mm3 and grouping the cancer-bearing mice without significant difference in average estimated tumor volume from a negative control group. The compound of Example 113 was suspended in a solvent (EtOH/DMA/Solutol HS-15/PEG400/5% HMPC). The suspension was orally administered to each mouse twice a day (BID) at a dose of 25, 50, 100, or 200 mg/kg for 4 consecutive days. On the next day, the tumor sizes were measured.
as §2, §3

Assay [3] deals with human lymphoma cell line RAMOS cells. The experiment in a line: Cell growth inhibition test using RAMOS cell, MTT assay. The class given is cell-based. Particulars: 50% growth inhibition concentration. In a few lines:
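Cells in RPMI1640 with 10% FBS were exposed to compound (DMSO ≤1%) for 3 days at 37° C, 5% CO2. Viability was read by MTT (4 h, formazan in DMSO, OD 540/660 nm) against a day-0 plate; GI50 was interpolated from T/C % growth rates.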
In general terms: Formazan colour is commonly taken as a measure of viable cells.

With `CCOc1cc(F)c(Cl)cc1C(=O)NCC(C)(C)CC(=O)Nc1c(COC)n(C)n(-c2ccccc2)c1=O` [Example 113, 5-Chloro-2-ethoxy-4-fluoro-N-(4-{[5-(methoxymethyl)-1-methyl-3-oxo-2-phenyl-2,3-dihydro-1H-pyrazol-4-yl]amino}-2,2-dimethyl-4-oxobutyl)benzamide], the “Rate of tumor growth inhibition (%)” value in assay [1] (50 mg/kg orally BID) is given as 19%; in assay [1] (100 mg/kg orally BID), 61%; in assay [1] (200 mg/kg orally BID), 86%; in assay [2] (25 mg/kg orally BID) it was 35%; in assay [2] (50 mg/kg orally BID), 56%; in assay [2] (100 mg/kg orally BID), 72%. Besides, the “Rate of tumor growth inhibition (%)” value in assay [2] (200 mg/kg orally BID) was found to be 75%. Also, the GI50 (as a rule, the concentration at which growth is held to half of that of the control) in assay [3] came out at 47 nM.
